Laboratory results: paper PMC5391474, “Investigation of the Role of Protein Kinase D in Human Rhinovirus Replication” (Journal of Virology, 2017)

Key:
Test in all cases: biochemical
Design in all cases: in vitro kinase selectivity panel, protein and lipid kinases, single concentration, ATP at Km
Settings in all cases: ATP at Km
cKit(D816H)(h) = biological target: T1, cKit(D816H)(h) (Homo sapiens, UniProt P10721, D816H)
T1 construct: gene KIT
Procedure: (§1) CRT0066101 was described previously ([48]) and was purchased for this study from Tocris, with a purity of 99.9%. CRT0066101 (XX-209) and compound XX-050 were synthesized as previously described ([68]). CRT0066051 (Y-095) was also synthesized as previously described ([69]). […] CRT0066101 can also be obtained in larger quantities from Ximbio. Inhibitors were tested in in vitro PKD kinase assays and cellular assays on PANC1 cells as previously described ([48]). The selectivity of the three PKD inhibitors was determined against a panel of protein and lipid kinases by Eurofins and the MRC PPU International Centre for Kinase Profiling (http://www.kinase-screen.mrc.ac.uk), respectively. Each inhibitor was tested at a single concentration of 1 μM and at an ATP concentration equivalent to the Km for each kinase. Having shown that HRV infection appears to activate PKD, we went on to explore the influence of chemical inhibitors of PKD on HRV replication. The compound CRT0066101 is a specific and potent PKD inhibitor that has been used in studies exploring its potential as an anticancer target ([48], [51]). This inhibitor has a 50% inhibitory concentration (IC50) of 1 nM against purified PKD in biochemical assays and a 50% effective concentration (EC50) of 1 μM in a cell-based assay (Table 1). We pretreated HeLa cells with increasing concentrations of the drug for 1 h followed by infection with HRV16. Viral replication was subsequently measured at 6 hpi by quantitative real-time PCR (qRT-PCR) (Fig. 2A) and by Western blotting using an antibody against the viral nonstructural protein 2C (Fig. 2B). […] Furthermore, we tested two novel and structurally different PKD inhibitors (CRT0066051 and XX-050) (Table 1) and confirmed that they too inhibited HRV 2C expression although with different potencies (Fig. 2D). Kinase selectivity profiling of all three PKD inhibitors was performed against a panel of protein and lipid kinases at a drug concentration of 1 μM and at an ATP concentration equivalent to the Km of each kinase (see Table S1 in the supplemental material). […] Since PKD is known to be involved in regulating the architecture of the Golgi apparatus, we confirmed the pharmacodynamic effect of these inhibitors by demon

Fes(h) = Fes(h) (Homo sapiens, UniProt P07332)
Procedure: as §1

MST2(h) = biological target: T2, MST2(h) (Homo sapiens, UniProt Q13188)
T2 construct: gene STK3
Procedure: as §1

c-RAF(h) = biological target: T3, c-RAF(h) (Homo sapiens, UniProt P04049)
T3 construct: gene RAF1
Procedure: as §1

CHK1(h) = biological target: T4, CHK1(h) (Homo sapiens, UniProt O14757)
T4 construct: gene CHEK1
Procedure: as §1

Aurora-A(h) = biological target: T5, Aurora-A(h) (Homo sapiens, UniProt O14965)
T5 construct: gene AURKA
Procedure: as §1

PKD (PKD1) = biological target: T6, PKD (PKD1) (Homo sapiens, UniProt Q15139)
T6 construct: gene PRKD1
Procedure: as §1

Abl(h) = biological target: T7, Abl(h) (Homo sapiens, UniProt P00519)
T7 construct: gene ABL1
Procedure: as §1

PKCι(h) = biological target: T8, PKCι(h) (Homo sapiens, UniProt P41743)
T8 construct: gene PRKCI
Procedure: as §1

Bmx(h) = Bmx(h) (Homo sapiens, UniProt P51813)
Procedure: as §1

PDGFRβ(h) = biological target: T9, PDGFRβ(h) (Homo sapiens, UniProt P09619)
T9 construct: gene PDGFRB
Procedure: as §1

ROCK-I(h) = biological target: T10, ROCK-I(h) (Homo sapiens, UniProt Q13464)
T10 construct: gene ROCK1
Procedure: as §1

HIPK2(h) = HIPK2(h) (Homo sapiens, UniProt Q9H2X6)
Procedure: as §1

PKCγ(h) = biological target: T11, PKCγ(h) (Homo sapiens, UniProt P05129)
T11 construct: gene PRKCG
Procedure: as §1

DGKB = DGKB (Homo sapiens, UniProt Q9Y6T7)
Procedure: as §1

cKit(V560G)(h) = biological target: T12, cKit(V560G)(h) (Homo sapiens, UniProt P10721, V560G)
T12 construct: gene KIT
Procedure: as §1

PKCα(h) = biological target: T13, PKCα(h) (Homo sapiens, UniProt P17252)
T13 construct: gene PRKCA
Procedure: as §1

T12 sequence (P10721 whole entry V560G): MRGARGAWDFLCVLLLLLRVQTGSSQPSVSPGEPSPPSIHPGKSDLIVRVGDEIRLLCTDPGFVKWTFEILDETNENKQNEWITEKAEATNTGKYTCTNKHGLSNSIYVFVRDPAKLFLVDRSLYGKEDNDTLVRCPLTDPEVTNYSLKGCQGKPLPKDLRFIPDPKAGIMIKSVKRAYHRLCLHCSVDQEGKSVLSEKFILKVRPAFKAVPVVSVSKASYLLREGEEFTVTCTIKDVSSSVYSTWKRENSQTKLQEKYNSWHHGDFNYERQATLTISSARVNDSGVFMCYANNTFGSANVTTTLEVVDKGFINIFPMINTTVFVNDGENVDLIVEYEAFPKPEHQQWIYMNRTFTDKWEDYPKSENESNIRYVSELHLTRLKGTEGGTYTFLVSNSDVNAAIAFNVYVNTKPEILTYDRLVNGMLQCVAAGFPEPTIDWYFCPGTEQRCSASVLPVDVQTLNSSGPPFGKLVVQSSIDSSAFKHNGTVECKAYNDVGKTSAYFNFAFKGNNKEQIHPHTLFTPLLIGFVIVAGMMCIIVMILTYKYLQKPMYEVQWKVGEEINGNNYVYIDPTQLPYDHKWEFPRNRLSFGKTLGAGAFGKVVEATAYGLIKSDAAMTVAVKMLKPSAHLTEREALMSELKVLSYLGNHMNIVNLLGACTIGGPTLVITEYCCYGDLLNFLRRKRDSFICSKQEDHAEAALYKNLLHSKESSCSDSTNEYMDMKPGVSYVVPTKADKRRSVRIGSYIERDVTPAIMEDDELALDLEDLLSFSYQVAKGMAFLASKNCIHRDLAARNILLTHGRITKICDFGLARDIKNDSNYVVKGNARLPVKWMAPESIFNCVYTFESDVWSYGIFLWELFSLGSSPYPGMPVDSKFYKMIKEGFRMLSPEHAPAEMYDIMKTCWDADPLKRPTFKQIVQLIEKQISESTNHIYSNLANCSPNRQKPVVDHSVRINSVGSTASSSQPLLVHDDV
T5 sequence (O14965 whole entry): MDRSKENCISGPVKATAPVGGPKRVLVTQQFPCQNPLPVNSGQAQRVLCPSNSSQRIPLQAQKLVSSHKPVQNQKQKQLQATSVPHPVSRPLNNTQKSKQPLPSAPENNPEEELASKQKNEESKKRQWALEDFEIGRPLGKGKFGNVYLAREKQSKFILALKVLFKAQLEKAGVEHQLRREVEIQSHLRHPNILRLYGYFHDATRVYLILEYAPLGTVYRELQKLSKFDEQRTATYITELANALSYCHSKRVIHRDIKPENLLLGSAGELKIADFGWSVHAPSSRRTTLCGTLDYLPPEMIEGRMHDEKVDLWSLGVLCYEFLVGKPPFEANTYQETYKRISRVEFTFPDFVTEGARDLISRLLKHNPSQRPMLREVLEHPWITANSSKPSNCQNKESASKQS
T6 sequence (Q15139 whole entry): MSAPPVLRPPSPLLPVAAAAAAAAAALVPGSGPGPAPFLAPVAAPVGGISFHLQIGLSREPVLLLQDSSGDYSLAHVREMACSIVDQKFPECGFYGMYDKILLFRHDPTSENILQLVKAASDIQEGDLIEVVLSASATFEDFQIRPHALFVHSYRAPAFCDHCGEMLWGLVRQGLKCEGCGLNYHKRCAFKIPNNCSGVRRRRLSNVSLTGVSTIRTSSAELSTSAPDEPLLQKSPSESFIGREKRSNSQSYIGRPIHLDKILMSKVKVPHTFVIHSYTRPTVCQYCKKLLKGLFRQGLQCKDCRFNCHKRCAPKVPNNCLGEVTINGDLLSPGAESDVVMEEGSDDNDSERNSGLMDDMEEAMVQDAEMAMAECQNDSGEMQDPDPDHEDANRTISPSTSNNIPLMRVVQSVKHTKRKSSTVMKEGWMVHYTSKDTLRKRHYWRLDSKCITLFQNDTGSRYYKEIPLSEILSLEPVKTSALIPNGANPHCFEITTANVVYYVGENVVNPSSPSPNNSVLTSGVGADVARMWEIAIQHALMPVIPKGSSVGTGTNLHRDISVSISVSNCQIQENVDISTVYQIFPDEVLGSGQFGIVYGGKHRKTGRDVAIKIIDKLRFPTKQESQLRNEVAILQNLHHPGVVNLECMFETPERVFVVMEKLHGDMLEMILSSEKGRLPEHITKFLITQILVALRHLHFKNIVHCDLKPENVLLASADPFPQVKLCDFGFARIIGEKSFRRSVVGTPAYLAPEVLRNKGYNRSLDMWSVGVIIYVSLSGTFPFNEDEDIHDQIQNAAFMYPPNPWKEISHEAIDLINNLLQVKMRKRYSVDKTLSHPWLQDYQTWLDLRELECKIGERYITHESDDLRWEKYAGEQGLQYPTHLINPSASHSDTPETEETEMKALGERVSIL
Fes(h), sequence (P07332 whole entry): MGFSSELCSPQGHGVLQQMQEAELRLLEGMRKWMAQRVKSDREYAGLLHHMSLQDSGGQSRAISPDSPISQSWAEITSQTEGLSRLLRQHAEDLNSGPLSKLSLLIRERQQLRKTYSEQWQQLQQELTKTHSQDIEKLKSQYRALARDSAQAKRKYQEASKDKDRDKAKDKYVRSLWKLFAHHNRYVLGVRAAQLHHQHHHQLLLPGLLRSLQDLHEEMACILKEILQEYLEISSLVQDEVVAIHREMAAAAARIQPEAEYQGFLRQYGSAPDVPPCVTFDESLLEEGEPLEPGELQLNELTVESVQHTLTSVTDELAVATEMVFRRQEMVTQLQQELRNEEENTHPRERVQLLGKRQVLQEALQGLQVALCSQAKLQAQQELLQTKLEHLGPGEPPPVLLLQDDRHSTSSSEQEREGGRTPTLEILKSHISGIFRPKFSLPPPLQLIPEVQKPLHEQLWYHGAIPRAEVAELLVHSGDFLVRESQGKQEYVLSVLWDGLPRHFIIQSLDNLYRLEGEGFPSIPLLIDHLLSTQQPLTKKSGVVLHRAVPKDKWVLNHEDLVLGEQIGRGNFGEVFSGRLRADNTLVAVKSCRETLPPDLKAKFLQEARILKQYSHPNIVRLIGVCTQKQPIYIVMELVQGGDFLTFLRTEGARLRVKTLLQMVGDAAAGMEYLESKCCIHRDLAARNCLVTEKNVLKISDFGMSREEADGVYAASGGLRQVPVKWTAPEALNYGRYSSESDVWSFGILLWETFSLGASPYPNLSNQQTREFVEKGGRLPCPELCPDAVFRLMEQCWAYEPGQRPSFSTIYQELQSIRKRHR
HIPK2(h), sequence (Q9H2X6 whole entry): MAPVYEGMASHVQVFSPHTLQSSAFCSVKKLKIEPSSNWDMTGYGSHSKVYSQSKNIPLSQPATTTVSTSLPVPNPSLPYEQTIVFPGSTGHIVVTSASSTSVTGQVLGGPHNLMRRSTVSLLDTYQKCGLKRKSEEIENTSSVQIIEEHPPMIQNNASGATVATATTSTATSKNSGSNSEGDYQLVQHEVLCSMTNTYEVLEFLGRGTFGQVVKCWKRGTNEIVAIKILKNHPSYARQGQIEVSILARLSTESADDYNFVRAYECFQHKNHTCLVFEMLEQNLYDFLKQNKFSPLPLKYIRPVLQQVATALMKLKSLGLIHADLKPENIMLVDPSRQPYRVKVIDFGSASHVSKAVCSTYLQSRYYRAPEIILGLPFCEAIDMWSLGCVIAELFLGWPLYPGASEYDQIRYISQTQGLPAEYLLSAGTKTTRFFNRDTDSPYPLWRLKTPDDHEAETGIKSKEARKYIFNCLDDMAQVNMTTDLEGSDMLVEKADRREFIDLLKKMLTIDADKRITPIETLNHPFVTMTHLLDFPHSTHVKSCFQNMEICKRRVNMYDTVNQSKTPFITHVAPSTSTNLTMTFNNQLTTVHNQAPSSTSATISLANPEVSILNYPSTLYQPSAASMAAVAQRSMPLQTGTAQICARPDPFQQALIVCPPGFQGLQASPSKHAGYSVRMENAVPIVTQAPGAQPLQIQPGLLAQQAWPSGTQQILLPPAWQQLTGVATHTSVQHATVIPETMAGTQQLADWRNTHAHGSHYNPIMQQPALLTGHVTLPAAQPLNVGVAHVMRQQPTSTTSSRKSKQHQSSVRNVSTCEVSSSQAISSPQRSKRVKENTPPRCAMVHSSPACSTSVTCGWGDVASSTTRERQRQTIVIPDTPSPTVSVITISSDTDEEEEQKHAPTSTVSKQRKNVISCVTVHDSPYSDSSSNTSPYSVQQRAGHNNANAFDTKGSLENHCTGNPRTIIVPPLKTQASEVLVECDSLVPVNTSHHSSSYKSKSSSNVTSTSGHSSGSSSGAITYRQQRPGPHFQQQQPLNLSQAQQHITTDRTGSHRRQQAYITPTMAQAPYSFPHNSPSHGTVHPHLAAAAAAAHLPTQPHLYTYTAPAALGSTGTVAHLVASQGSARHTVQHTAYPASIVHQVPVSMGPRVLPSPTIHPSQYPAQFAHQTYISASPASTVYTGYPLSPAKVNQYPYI
T1 sequence (P10721 whole entry D816H): as the sequence (P10721 whole entry V560G) above, with G560V, D816H counted along it

CC[C@@H](N)CNc1ccnc(-c2cc(-c3cnn(C)c3)ccc2O)n1 [CRT0066101]
inhibition at 1 µM (cKit(D816H)(h)): 51%
inhibition at 1 µM (Fes(h)): -20%
inhibition at 1 µM (MST2(h)): 20%
inhibition at 1 µM (c-RAF(h)): 4%
inhibition at 1 µM (CHK1(h)): -2%
inhibition at 1 µM (Aurora-A(h)): -1%
inhibition at 1 µM (PKD (PKD1)): 98%
inhibition at 1 µM (Abl(h)): -13%
inhibition at 1 µM (PKCι(h)): 10%
inhibition at 1 µM (Bmx(h)): 26%
inhibition at 1 µM (PDGFRβ(h)): -1%
inhibition at 1 µM (ROCK-I(h)): 4%
inhibition at 1 µM (HIPK2(h)): 55%
inhibition at 1 µM (PKCγ(h)): 7%
inhibition at 1 µM (DGKB): -9%
inhibition at 1 µM (cKit(V560G)(h)): 24%
inhibition at 1 µM (PKCα(h)): 4%
